Assay results published in US20240025922A1, “TETRAHYDROPYRIDO[3,4-d]PYRIMIDINES AS HPK1 INHIBITORS” (Merck Patent GmbH, priority 2022, published 2024).

How the values were obtained:
[1] = target: HPK1 (SLP76 phosphorylation at Ser376 in Jurkat and EL-4 cells) (Homo sapiens, UniProt Q92918); assay type: cell-based; details: αCD3/αCD28 Dynabeads stimulated cells, pSLP76 (Ser376) detection; read-out: HPK1 pSLP76 IC50
Description: Cellular Assay—Phospho-SLP-76 (Ser376).
Inhibition of HPK1 enzymatic activity in cells was determined by detection of SLP76 phosphorylation at Ser376 residue in lysate from Jurkat (human) and EL-4 (mouse) cells. Jurkat and EL-4 cells express both HPK1 and SLP76 naturally. All cells were cultured in RPMI 1640 media containing 10% heat inactivated fetal bovine serum (FBS) and 1×Penicillin-Streptomycin. In either Jurkat or El-4 assay, cells were pre-incubated with test compounds prior to T cell stimulation by respective αCD3/αCD28 Dynabeads™. For detection, plates were read on the Envision and percent inhibition and IC50 were determined by Smart fit in Genedata Analyzer.
For Jurkat cells: 35 μL cell suspension were dispensed at a density of 30,000 cells/well in 384-well plates containing HBSS (Gibco, 14025076)+0.1% BSA). 10-point logarithmic serial dilution of test compounds in DMSO were prepared by a Hamilton automated liquid handling robot and 35 nL was transferred into each well by an Echo liquid handler. After 60 min. pre-incubation, the cells were stimulated by adding 5 μL human T activator αCD3/αCD28 Dynabeads™ (Gibco, 11132D) at 1.2×107 beads/mL for 15 minutes at 37° C. Detection of Ser376 phosphorylation status was accomplished by first adding 10 μL of 5×AlphaLISA lysis buffer (Perkin Elmer, ALSU-PSLP-A500) to each well of the cell plate using a Multidrop Combi (5840300), followed by 20 minutes shaking. 10 μL cell lysate from each treatment were then transferred to a white 384-well plate (Corning 3572) and incubated with AlphaLISA acceptor beads for one hour (AlphaLISA SureFire Ultra p-SLP76(Ser376), Perkin Elmer, ALSU-PSLP-A500), and donor beads for additional 2 hours at room temperature in the dark.
For EL-4.IL2 assay, 50 μL cell suspension at 2×10^6 cells/mL in HBSS were first dispensed into 384-well plates and then 50 nL serial dilutions of test compounds were spotted to each well by an Echo liquid handler. After 60 min. incubation at 37° C., cells were stimulated by adding 5 μL mouse T cell activator αCD3/αCD28 Dynabeads™ (ThermFisher Scientific, 11452D) for 30 minutes at 37° C. After a brief spin and subsequent supernatant discarded, 12.5 μL of Cisbio lysis buffer were added to each well and plates were shaken for 30 min at 450 RPM. For detection, 4 μL prepared HTRF antibody mixture (Cisbio, 63ADK000U) in detection buffer were mixed with 16 μl of cell lysate and plates were incubated at room temperature for 19 hours prior to EnVision reading.

[2] = target: full-length human HPK1 (MAP4K1) (Homo sapiens (Human), UniProt Q92918); assay: HPK1 Kinase Assay (Biochemical Assay), ADP-Glo; details: GST-HPK1 3.2 nM, 10 μM ATP, MBP substrate, read-out: HPK1 enzymatic IC50
Excerpt: HPK1 Kinase Assay (Biochemical Assay).
A recombinant fusion protein consisting of full-length human HPK1 (MAP4K1) with an N-terminal Glutatione S-transferase (GST) tag was produced in insect cells Sf21 using the baculovirus expression system. GST-HPK1 protein was purified from cell lysates by glutathione Sepharose affinity chromatography. The assay is run in three continuous steps: 1) the HPK1 enzymatic kinase reaction, 2) an ATP depletion, and 3) the ADP detection, the steps 2 and 3 are performed with ADP-Glo™ Kinase Assay kit from Promega (V9101). Test compounds were prepared by 10-point serial dilution in dimethyl sulfoxide (DMSO) and 100 nL of each dilution was spotted onto a 384-well Optiplate (Perkin Elmer and Cat #6007299) by Labcyte Echo. 5 μL kinase reaction buffer (0.02% Brij-35, 2 mM DTT, 50 mM HEPES pH 7.5, MgCl2 10 mM, BSA 0.01% and O-glycerophosphate 12.5 mM) containing HPK1 (3.2 nM) enzyme was transferred to each well and incubated for 15 minutes at room temperature at 60% humidity. The enzymatic reaction was started by adding 5 μl of Start-Mix (10 μM ATP and 3.235 μM MBP). After 120 minutes, the reaction was stopped by adding 5 μL of ADP-Glo reagent (Promega, V9101) and incubating for 40 min. in the dark at 23° C. To determine the level of ADP, 10 μl ADP-Glo Detection solution was added and incubated for 1 hour at 23° C. in the dark. The plate was transferred to a Perkin Elmer EnVision (2104 Multilabel Reader) for luminescence detection and percent inhibition activity and IC50 value were determined using Genedata Screener.

Chain of full-length human HPK1 (MAP4K1) (Q92918 whole entry): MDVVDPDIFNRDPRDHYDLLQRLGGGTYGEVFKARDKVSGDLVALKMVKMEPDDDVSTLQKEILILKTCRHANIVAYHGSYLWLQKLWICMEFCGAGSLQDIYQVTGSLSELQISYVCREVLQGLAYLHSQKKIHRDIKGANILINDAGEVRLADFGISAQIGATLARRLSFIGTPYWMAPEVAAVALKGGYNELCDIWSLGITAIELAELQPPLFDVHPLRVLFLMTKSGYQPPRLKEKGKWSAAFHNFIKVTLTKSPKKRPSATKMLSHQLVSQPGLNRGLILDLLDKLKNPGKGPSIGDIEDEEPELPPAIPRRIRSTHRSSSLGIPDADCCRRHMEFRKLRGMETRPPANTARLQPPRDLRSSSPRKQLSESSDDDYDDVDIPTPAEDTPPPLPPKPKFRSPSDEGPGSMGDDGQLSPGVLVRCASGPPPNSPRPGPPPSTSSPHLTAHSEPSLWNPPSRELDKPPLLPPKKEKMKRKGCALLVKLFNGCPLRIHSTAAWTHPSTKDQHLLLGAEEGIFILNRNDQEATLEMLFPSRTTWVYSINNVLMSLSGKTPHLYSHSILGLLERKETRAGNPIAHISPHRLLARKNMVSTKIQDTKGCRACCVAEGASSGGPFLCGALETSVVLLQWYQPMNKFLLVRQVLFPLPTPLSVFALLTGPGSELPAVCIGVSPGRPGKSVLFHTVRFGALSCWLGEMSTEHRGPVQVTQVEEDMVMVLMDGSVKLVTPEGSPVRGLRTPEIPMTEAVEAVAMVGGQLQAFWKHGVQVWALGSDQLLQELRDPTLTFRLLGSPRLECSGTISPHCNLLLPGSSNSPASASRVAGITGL
Chain of HPK1 (SLP76 phosphorylation at Ser376 in Jurkat and EL-4 cells) (Q92918 whole entry, looked up): as the sequence (Q92918 whole entry) above

Cc1cc(Nc2ncc3c(n2)CN(c2cnc4c(c2C)NCCO4)CC3)ccc1N(C)CCN1CCOCC1 [Example 17, N1,2-dimethyl-N4-(7-{8-methyl-1H,2H,3H-pyrido[2,3-b][1,4]oxazin-7-yl}-5H,6H,7H,8H-pyrido[3,4-d]pyrimidin-2-yl)-N1-[2-(morpholin-4-yl)ethyl]benzene-1,4-diamine; formic acid]
IC50 [1]: 500 to 1000 nM | IC50 [2]: < 100 nM

Cc1c(N2CCc3cnc(Nc4ccc(C5(S(C)(=O)=O)CC5)nc4)nc3C2)cnc2c1NCCO2 [Example 18, 6-(1-methanesulfonylcyclopropyl)-N-(7-{8-methyl-1H,2H,3H-pyrido[2,3-b][1,4]oxazin-7-yl}-5H,6H,7H,8H-pyrido[3,4-d]pyrimidin-2-yl)pyridin-3-amine]
IC50 [1]: 500 to 1000 nM | IC50 [2]: < 100 nM

Cc1c(N2CCc3cnc(Nc4cnc(CS(C)(=O)=O)c(F)c4)nc3C2)cnc2c1NCCO2 [Example 19, 5-fluoro-6-(methanesulfonylmethyl)-N-(7-{8-methyl-1H,2H,3H-pyrido[2,3-b][1,4]oxazin-7-yl}-5H,6H,7H,8H-pyrido[3,4-d]pyrimidin-2-yl)pyridin-3-amine]
IC50 [1]: < 500 nM | IC50 [2]: < 100 nM

Cc1c(N2CCc3cnc(Nc4ccc(C(C)(C)S(C)(=O)=O)nc4)nc3C2)cnc2c1NCCO2 [Example 20, 6-(2-methanesulfonylpropan-2-yl)-N-(7-{8-methyl-1H,2H,3H-pyrido[2,3-b][1,4]oxazin-7-yl}-5H,6H,7H,8H-pyrido[3,4-d]pyrimidin-2-yl)pyridin-3-amine]
IC50 [1]: > 1000 nM | IC50 [2]: < 100 nM

Cc1cc(Nc2ncc3c(n2)CN(c2cnc4c(c2C)NCCO4)CC3)cnc1CS(C)(=O)=O [Example 21, 6-(methanesulfonylmethyl)-5-methyl-N-(7-{8-methyl-1H,2H,3H-pyrido[2,3-b][1,4]oxazin-7-yl}-5H,6H,7H,8H-pyrido[3,4-d]pyrimidin-2-yl)pyridin-3-amine]
IC50 [1]: 500 to 1000 nM | IC50 [2]: < 100 nM

Cc1cc(Nc2ncc3c(n2)CN(c2cnc4c(c2C)NCCO4)CC3)ccc1NCCN1CCOCC1 [Example 23, 2-methyl-N4-(7-{8-methyl-1H,2H,3H-pyrido[2,3-b][1,4]oxazin-7-yl}-5H,6H,7H,8H-pyrido[3,4-d]pyrimidin-2-yl)-N1-[2-(morpholin-4-yl)ethyl]benzene-1,4-diamine]
IC50 [1]: 500 to 1000 nM | IC50 [2]: < 100 nM

Cc1c(N2CCc3cnc(Nc4ccc(S(C)(=O)=O)cc4)nc3C2)cnc2c1NCCO2 [Example 24, N-(4-methanesulfonylphenyl)-7-{8-methyl-1H,2H,3H-pyrido[2,3-b][1,4]oxazin-7-yl}-5H,6H,7H,8H-pyrido[3,4-d]pyrimidin-2-amine]
IC50 [1]: 500 to 1000 nM | IC50 [2]: < 100 nM

Cc1c(N2CCc3cnc(Nc4ccc(OCS(C)(=O)=O)cc4)nc3C2)cnc2c1NCCO2 [Example 25, N-[4-(methanesulfonylmethoxy)phenyl]-7-{8-methyl-1H,2H,3H-pyrido[2,3-b][1,4]oxazin-7-yl}-5H,6H,7H,8H-pyrido[3,4-d]pyrimidin-2-amine]
IC50 [1]: < 500 nM | IC50 [2]: < 100 nM

Cc1c(N2CCc3cnc(Nc4ccc(NCCN(C)C)nc4)cc3C2)cnc2c1NCCO2 [Example 26, N2-[2-(dimethylamino)ethyl]-N5-(6-{8-methyl-1H,2H,3H-pyrido[2,3-b][1,4]oxazin-7-yl}-5,6,7,8-tetrahydro-2,6-naphthyridin-3-yl)pyridine-2,5-diamine]
IC50 [1]: 500 to 1000 nM | IC50 [2]: < 100 nM

Cc1cc(Nc2cc3c(cn2)CCN(c2cnc4c(c2C)NCCO4)C3)ccc1C(=O)NCCN1CCOCC1 [Example 27, 2-methyl-4-[(6-{8-methyl-1H,2H,3H-pyrido[2,3-b][1,4]oxazin-7-yl}-5,6,7,8-tetrahydro-2,6-naphthyridin-3-yl)amino]-N-[2-(morpholin-4-yl)ethyl]benzamide]
IC50 [1]: 500 to 1000 nM | IC50 [2]: < 100 nM

Cc1cc(Nc2ncc3c(n2)CN(c2cnc4c(c2C)NCCO4)CC3)cnc1NCCN(C)C [Example 28, N2-[2-(dimethylamino)ethyl]-3-methyl-N5-(7-{8-methyl-1H,2H,3H-pyrido[2,3-b][1,4]oxazin-7-yl}-5H,6H,7H,8H-pyrido[3,4-d]pyrimidin-2-yl)pyridine-2,5-diamine]
IC50 [1]: 500 to 1000 nM | IC50 [2]: < 100 nM

Cc1c(N2CCc3cnc(Nc4ccc(NC(=O)CN5CCOCC5)c(C(F)(F)F)c4)nc3C2)cnc2c1NCCO2 [Example 29, N-{4-[(7-{8-methyl-1H,2H,3H-pyrido[2,3-b][1,4]oxazin-7-yl}-5H,6H,7H,8H-pyrido[3,4-d]pyrimidin-2-yl)amino]-2-(trifluoromethyl)phenyl}-2-(morpholin-4-yl)acetamide]
IC50 [1]: < 500 nM | IC50 [2]: < 100 nM

Cc1c(N2CCc3cnc(Nc4ccc5c(c4)CN(CC(C)(C)O)C5)nc3C2)cnc2c1NCCO2 [Example 30, 2-methyl-1-{5-[(7-{8-methyl-1H,2H,3H-pyrido[2,3-b][1,4]oxazin-7-yl}-5H,6H,7H,8H-pyrido[3,4-d]pyrimidin-2-yl)amino]-2,3-dihydro-1H-isoindol-2-yl}propan-2-ol]
IC50 [1]: < 500 nM | IC50 [2]: < 100 nM

Cc1c(N2CCc3cnc(Nc4ccc(NC(=O)CN(C)C)nc4)cc3C2)cnc2c1NCCO2 [Example 31, 2-(dimethylamino)-N-{5-[(6-{8-methyl-1H,2H,3H-pyrido[2,3-b][1,4]oxazin-7-yl}-5,6,7,8-tetrahydro-2,6-naphthyridin-3-yl)amino]pyridin-2-yl}acetamide]
IC50 [1]: > 1000 nM | IC50 [2]: < 100 nM

Cc1c(N2CCc3cnc(Nc4ccc(NC(=O)CN5CCOCC5)nc4)cc3C2)cnc2c1NCCO2 [Example 32, N-{5-[(6-{8-methyl-1H,2H,3H-pyrido[2,3-b][1,4]oxazin-7-yl}-5,6,7,8-tetrahydro-2,6-naphthyridin-3-yl)amino]pyridin-2-yl}-2-(morpholin-4-yl)acetamide]
IC50 [1]: > 1000 nM | IC50 [2]: < 100 nM

Cc1cc(Nc2cc3c(cn2)CCN(c2cnc4c(c2C)NCCO4)C3)ccc1NC(=O)CN(C)C [Example 33, 2-(dimethylamino)-N-{2-methyl-4-[(6-{8-methyl-1H,2H,3H-pyrido[2,3-b][1,4]oxazin-7-yl}-5,6,7,8-tetrahydro-2,6-naphthyridin-3-yl)amino]phenyl}acetamide]
IC50 [1]: > 1000 nM | IC50 [2]: < 100 nM

Cc1cc(Nc2cc3c(cn2)CCN(c2cnc4c(c2C)NCCO4)C3)ccc1NC(=O)CN1CCOCC1 [Example 34, N-{2-methyl-4-[(6-{8-methyl-1H,2H,3H-pyrido[2,3-b][1,4]oxazin-7-yl}-5,6,7,8-tetrahydro-2,6-naphthyridin-3-yl)amino]phenyl}-2-(morpholin-4-yl)acetamide]
IC50 [1]: < 500 nM | IC50 [2]: < 100 nM

Cc1cc(Nc2ncc3c(n2)CN(c2cnc4c(c2C)NCCO4)CC3)ccc1C(=O)NC1CN(C)C1 [Example 35, 2-methyl-4-[(7-{8-methyl-1H,2H,3H-pyrido[2,3-b][1,4]oxazin-7-yl}-5H,6H,7H,8H-pyrido[3,4-d]pyrimidin-2-yl)amino]-N-(1-methylazetidin-3-yl)benzamide]
IC50 [1]: 500 to 1000 nM | IC50 [2]: < 100 nM
